Data published in patent US20100292327A1, “TREATMENT OF ASPIRIN RESISTANCE WITH BETAINE AND/OR BETAINE ENRICHED MOLASSES” (priority 2007, published 2010).
“And” between values parts separate entries of the source, which are not always exact repeats. Equal values may be shown once. Read-outs that look alike come from different tables or passages of the source.

Key:
[1] = tested on: whole blood aggregation, Collagen; experiment: Whole blood aggregation (Multiplate) COL test before and one hour after oral betaine (Example 11); assay type: in vivo, human (patients); details: for Collagen aggregation (AUC): individual patients (one line per patient), one hour after 4 g betaine oral, on aspirin 100 mg/day
Procedure: (§1) 20 patients attending Hospital cardiovascular consultation were enrolled for the study. Patients were all on 100 mg/day aspirin for their cardiovascular protection. Necessary ethical clearance was obtained from Hospital IRB.
(§2) Whole blood aggregation profile using Multiplate® instrument was assessed for each patient before and one hour after oral administration of 4 g of betaine. Blood was sampled on hirudin as anticoagulant.
(§3) Using the different test procedures available for the Multiplate® comprehensive information on platelet function and antiplatelet effects of betaine vs. basal values was assessed. Agonists were prepared in 1 ml solutions according to Multiplatc technical sheets and were used in the following volumes or concentrations: ASPI test: 20 μL, COL test: 20 μL, TRAP test: 20 μL, ADP test: 20 μL, RISTO test: 40 μL (1.2 mg/ml).

[2] = tested on: platelet aggregation in whole blood, activation by TRAP-6; experiment: Multiplate whole blood aggregometry, TRAP test, blood supplemented with betaine (Example 1); assay type: cell-based, human (CAD patients); parameters: TRAP aggregation / TRAP aggregation, mean: unit not given here; details: for TRAP aggregation / TRAP aggregation, mean: betaine 50 μg/ml; for inhibition at 50 µg/mL: Homo sapiens, Platelet, betaine 50 μg/ml vs. saline
Procedure: (§4) Protocol Blood of 24 CAD patients on Aspirin or Aspirin+Clopidogrel is supplemented with saline or Betaine (50 μg/ml) and tested for Whole Blood Aggregometry using a Multiplate® (Dynabyte Informations System GmbH, Munich) whole blood aggregometer different agonists where used i.e.:
(§5) ASPI test: Activation by arachidonic acid to detect Aspirin effects. COL test: Collagen activates the collagen receptor, which leads to a release of endogenous arachidonic acid, which is converted to TXA2 and activates the platelet. ADP test: ADP stimulates platelet activation by the ADP receptors. The most important ADP receptor (P2Y12) is blocked by clopidogrel, prasugrel and ticlopidine. TRAP test: TRAP-6 stimulates the thrombin receptor on the platelet surface. TRAP test allows detecting GPIIb/IIIa antagonists.

[3] = tested on: whole blood aggregation, Ristocetin; experiment: Whole blood aggregation (Multiplate) RISTO test before and one hour after oral betaine (Example 11); assay type: in vivo, human (patients); details: for Ristocetin aggregation (AUC): individual patients (one line per patient), one hour after 4 g betaine oral, on aspirin 100 mg/day
Procedure: as §1, §2, §3

[4] = tested on: platelet aggregation in whole blood, activation by arachidonic acid; experiment: Multiplate whole blood aggregometry, ASPI test, blood supplemented with betaine (Example 1); assay type: cell-based, human (CAD patients); parameters: AspiTest aggregation / AspiTest aggregation, mean: unit not given here; details: for AspiTest aggregation / AspiTest aggregation, mean: betaine 50 μg/ml; for inhibition at 50 µg/mL: Homo sapiens, Platelet
Procedure: as §4, §5

[5] = tested on: whole blood aggregation, AspiTest (arachidonic acid); experiment: Whole blood aggregation (Multiplate) ASPI test before and one hour after oral betaine (Example 11); assay type: in vivo, human (patients); details: for AspiTest aggregation (AUC): individual patients (one line per patient), one hour after 4 g betaine oral, on aspirin 100 mg/day
Procedure: as §1, §2, §3

[6] = tested on: platelet aggregation in whole blood, activation by collagen; experiment: Multiplate whole blood aggregometry, COL test, blood supplemented with betaine (Example 1); assay type: cell-based, human (CAD patients); parameters: Collagen aggregation / Collagen aggregation, mean: unit not given here; details: for Collagen aggregation / Collagen aggregation, mean: betaine 50 μg/ml; for inhibition at 50 µg/mL: Homo sapiens, Platelet
Procedure: as §4, §5

[7] = tested on: platelet aggregation in whole blood, activation by ADP; experiment: Multiplate whole blood aggregometry, ADP test, blood supplemented with betaine (Example 1); assay type: cell-based, human (CAD patients); parameters: ADP aggregation / ADP aggregation, mean: unit not given here; details: for ADP aggregation / ADP aggregation, mean: betaine 50 μg/ml; for inhibition at 50 µg/mL: Homo sapiens, Platelet, betaine 50 μg/ml vs. saline
Procedure: as §4, §5

[8] = tested on: whole blood aggregation, ADP; experiment: Whole blood aggregation (Multiplate) ADP test before and one hour after oral betaine (Example 11); assay type: in vivo, human (patients); details: for ADP aggregation (AUC): individual patients (one line per patient), one hour after 4 g betaine oral, on aspirin 100 mg/day
Procedure: as §1, §2, §3

[9] = tested on: whole blood aggregation, TRAP test; experiment: Whole blood aggregation (Multiplate) TRAP test before and one hour after oral betaine (Example 11); assay type: in vivo, human (patients); details: for TRAP aggregation (AUC): individual patients (one line per patient), one hour after 4 g betaine oral, on aspirin 100 mg/day
Procedure: as §1, §2, §3

[10] = ASA poor responders, after 4 g betaine oral
[11] = after 4 g betaine oral, patients on aspirin 100 mg/day
[12] = ASA and ASA/clopidogrel non responders, individual patients (one line per patient)
[13] = individual patients # 1-24 (one line per patient), blood of CAD patients on aspirin or aspirin+clopidogrel
[14] = betaine 50 μg/ml vs. saline, p<0.05
[15] = 20 patients, after 4 g betaine by oral route
[16] = ASA responders, after 4 g betaine oral

## C[N+](C)(C)CC(=O)O [betaine, glycine betaine of formula (CH3)3N^+(CH2) COO^−]
[1]; 20 patients, after 4 g betaine by oral route, P Student 0.045
  Difference Vs. basal, Collagen: −19%
[1]; 20 patients, after 4 g betaine by oral route, basal mean 30.35
  Mean of AUC aggregations, Collagen: 24.65
[1]; [10]
  Difference Vs. basal, Collagen: −1%
[1]; ASA poor responders
  Collagen aggregation (AUC): 47 and 48 and 32 and 18 and 10 and 58 and 65 and 57
[1]; ASA responders, after 4 g betaine oral, P Student 0.039
  Difference Vs. basal, Collagen: −41%
[1]; ASA responders
  Collagen aggregation (AUC): 11 and 7 and 29 and 12 and 23 and 4 and 10 (2×) and 3 (2×) and 30 and 16
[1]; [11]
  effect on platelet function, collagen aggregation: ameliorated significantly
[1]; mean of 8 ASA poor responders after 4 g betaine oral, basal mean 42.375
  Collagen aggregation, mean: 41.875
[1]; mean of 12 ASA responders after 4 g betaine oral, basal mean 22.33
  Collagen aggregation, mean: 13.17
[2]; [12]
  TRAP aggregation: 155 and 141 and 93 and 179 and 120 and 100 and 67 and 103 (2×) and 29
[2]; ASA and ASA/clopidogrel non responders, P (Student) 0.093, read-out: Additional inhibition, TRAP
  inhibition at 50 µg/mL: 19%
[2]; all patients, P (Student) 0.0392, read-out: Betaine additional inhibition, TRAP
  inhibition at 50 µg/mL: 13%
[2]; [13]
  TRAP aggregation: 60 (2×) and 102 and 79 and 67 and 103 (2×) and 87 and 84 and 31 and 153 and 152 and 29 and 155 and 141 and 83 and 30 and 22 and 93 and 179 and 120 and 100 and 127
[2]; mean of 10 ASA and ASA/clopidogrel non responders, saline mean 133.7
  TRAP aggregation, mean: 109
[2]; mean of patients, saline mean 108
  TRAP aggregation, mean: 93.91
[3]; 20 patients, after 4 g betaine by oral route, P Student 0.012
  Difference Vs. basal, Ristocetin: −37%
[3]; 20 patients, after 4 g betaine by oral route, basal mean 53.4
  Mean of AUC aggregations, Ristocetin: 33.6
[3]; ASA poor responders, after 4 g betaine oral, P Student 0.22
  Difference Vs. basal, Ristocetin: −24%
[3]; ASA poor responders
  Ristocetin aggregation (AUC): 62 and 78 and 123 and 81 and 30 and 2 and 43 and 11
[3]; ASA responders, after 4 g betaine oral, P Student 0.031
  Difference Vs. basal, Ristocetin: −52%
[3]; ASA responders
  Ristocetin aggregation (AUC): 39 and 10 and 42 and 23 and 35 and 6 and 3 and 21 and 14 (2×) and 26 and 9
[3]; [11]
  effect on platelet function, ristocetin aggregation (agglutination): ameliorated significantly
[3]; mean of 8 ASA poor responders after 4 g betaine oral, basal mean 70.75
  Ristocetin aggregation, mean: 53.75
[3]; mean of 12 ASA responders after 4 g betaine oral, basal mean 41.83
  Ristocetin aggregation, mean: 20.17
[4]; [12]
  AspiTest aggregation: 121 and 75 and 97 and 125 and 87 and 94 (2×) and 84 and 49 and 61
[4]; ASA and ASA/clopidogrel non responders, betaine 50 μg/ml vs. saline, P (Student) 0.0043, read-out: Additional inhibition, AspiTest
  inhibition at 50 µg/mL: 20%
[4]; all 24 patients, betaine 50 μg/ml vs. saline, P (Student) 0.0109, read-out: Betaine additional inhibition, AspiTest
  inhibition at 50 µg/mL: 17%
[4]; [14]
  synergistic effect with aspirin and/or clopidogrel on AspiTest: significant
[4]; [13]
  AspiTest aggregation: 10 and 22 and 54 and 18 and 84 and 94 (2×) and 62 and 29 and 21 and 49 and 17 (2×) and 5 and 61 and 121 and 13 and 75 and 12 and 6 and 97 and 125 and 87 and 77
[4]; mean of 10 ASA and ASA/clopidogrel non responders, saline mean 111.1
  AspiTest aggregation, mean: 88.7
[4]; mean of 24 patients, saline mean 62.54
  AspiTest aggregation, mean: 52.08
[5]; 20 patients, after 4 g betaine by oral route, P Student 0.57
  Difference Vs. basal, AspiTest: 5%
[5]; 20 patients, after 4 g betaine by oral route, basal mean 23.05
  Mean of AUC aggregations, AspiTest: 24.15
[5]; [10]
  Difference Vs. basal, AspiTest: 3%
[5]; ASA poor responders
  AspiTest aggregation (AUC): 24 and 74 and 81 and 69 and 46 and 27 and 35 and 52
[5]; ASA responders, after 4 g betaine oral, P Student 0.6
  Difference Vs. basal, AspiTest: 14%
[5]; ASA responders
  AspiTest aggregation (AUC): 11 and 7 and 4 (2×) and 9 (2×) and 5 and 1 and 3 (2×) and 6 and 13
[5]; mean of 8 ASA poor responders after 4 g betaine oral, basal mean 49.375
  AspiTest aggregation, mean: 51
[5]; mean of 12 ASA responders after 4 g betaine oral, basal mean 5.5
  AspiTest aggregation, mean: 6.25
[6]; [12]
  Collagen aggregation: 42 and 30 and 76 and 91 (2×) and 75 (2×) and 88 and 21 and 24
[6]; ASA and ASA/clopidogrel non responders, betaine 50 μg/ml vs. saline, P (Student) 0.0242, read-out: Additional inhibition, Collagen
  inhibition at 50 µg/mL: 17%
[6]; all 24 patients, betaine 50 μg/ml vs. saline, P (Student) 0.0006, read-out: Betaine additional inhibition, Collagen
  inhibition at 50 µg/mL: 20%
[6]; [14]
  synergistic effect with aspirin and/or clopidogrel on collagen: significant
[6]; [13]
  Collagen aggregation: 4 and 3 (2×) and 35 and 21 (2×) and 75 (2×) and 91 (2×) and 26 and 34 and 29 and 59 and 25 and 24 and 42 and 2 and 30 and 8 and 17 and 76 and 88 and 46
[6]; mean of 10 ASA and ASA/clopidogrel non responders, saline mean 74.4
  Collagen aggregation, mean: 61.3
[6]; mean of 24 patients, saline mean 48.46
  Collagen aggregation, mean: 38.54
[7]; [12]
  ADP aggregation: 173 and 70 and 89 (2×) and 86 and 90 and 63 and 77 and 83 and 56
[7]; ASA and ASA/clopidogrel non responders, P (Student) 0.449, read-out: Additional inhibition, ADP
  inhibition at 50 µg/mL: 5%
[7]; all patients, P (Student) 0.067, read-out: Betaine additional inhibition, ADP
  inhibition at 50 µg/mL: 8%
[7]; [13]
  ADP aggregation: 44 and 1 and 68 and 46 and 63 and 77 and 82 and 57 and 83 and 100 and 81 and 56 and 173 and 4 and 70 and 29 and 6 and 13 and 89 (2×) and 86 and 90 and 115
[7]; mean of 10 ASA and ASA/clopidogrel non responders, saline mean 91.8
  ADP aggregation, mean: 87.6
[7]; mean of patients, saline mean 71.78
  ADP aggregation, mean: 66.17
[8]; [15]
  Difference Vs. basal, ADP: 2%
[8]; 20 patients, after 4 g betaine by oral route, basal mean 55.55
  Mean of AUC aggregations, ADP: 56.5
[8]; ASA poor responders, after 4 g betaine oral, P Student 0.5
  Difference Vs. basal, ADP: −7%
[8]; ASA poor responders
  ADP aggregation (AUC): 71 and 53 and 66 and 60 and 38 and 32 and 70 and 40
[8]; [16]
  Difference Vs. basal, ADP: 8%
[8]; ASA responders
  ADP aggregation (AUC): 2 and 121 and 64 (2×) and 80 and 93 and 14 and 51 and 47 and 44 and 75 and 45
[8]; mean of 8 ASA poor responders after 4 g betaine oral, basal mean 57.75
  ADP aggregation, mean: 53.75
[8]; mean of 12 ASA responders after 4 g betaine oral, basal mean 54.08
  ADP aggregation, mean: 58.33
[9]; [15]
  Difference Vs. basal, TRAP: 0%
[9]; 20 patients, after 4 g betaine by oral route, basal mean 91.95
  Mean of AUC aggregations, TRAP: 91.9
[9]; [10]
  Difference Vs. basal, TRAP: 3%
[9]; ASA poor responders
  TRAP aggregation (AUC): 106 (2×) and 66 (2×) and 133 and 103 and 60 and 95
[9]; [16]
  Difference Vs. basal, TRAP: −2%
[9]; ASA responders
  TRAP aggregation (AUC): 64 and 154 and 115 and 136 and 131 and 29 and 80 and 77 (2×) and 67 and 104 and 69
[9]; mean of 8 ASA poor responders after 4 g betaine oral, basal mean 89
  TRAP aggregation, mean: 91.875
[9]; mean of 12 ASA responders after 4 g betaine oral, basal mean 93.92
  TRAP aggregation, mean: 91.92
